Data reported in PubChem BioAssay AID1963436 (Molecular Pharmacology Branch, DTP, NCI, 2024).
“And” between values parts separate entries of the source, which are not always exact repeats. Equal entries are not always repeated.

Test system: OVCAR-5 complex spheroid (HUVEC/MSC), viability % T/C
Experiment: Anticancer human tumor OVCAR-5 cell line growth inhibition [Asc];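 also: spheroids exposed to agents for 7 days before readout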;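 as to viability, T/C: 100% = DMSO vehicle-treated wells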
Conditions: for viability, T/C: stronger effect = lower value
Experimental: Multicellular complex tumor spheroid response to apoptosis pathway targeting inhibitors Alrizomadlin, Pelcitoclax, and Dasminapant in combination with a variety of drugs and investigational agents in selected tumor cell lines
The MDM2 inhibitor alrizomadlin, the Bcl-2/Bcl-xL inhibitor pelcitoclax, and the IAPs inhibitor dasminapant were evaluated both individually and in combination with standard of care and investigational anticancer small molecules within a complex spheroid model of solid tumors. . Complex spheroids include a stromal component modeled by human endothelial cells (HUVEC) and fibroblasts modeled by human mesenchymal stem cells (MSCs). The concentration ranges selected for each drug and investigational agent were based upon clinically achievable concentrations if the clinical Cmax of the agent was known.
Compounds. The drugs and investigational agents: alrizomadlin (APG-115; NSC831270), pelcitoclax (APG-1252; NSC835773), dasminapant (APG-1387;NSC834197), TAK-243 (NSC785004), copanlisib (NSC809693), olaparib (NSC753686), talazoparib (NSC767125), cobimetinib (NSC 768068), eltanexor (KPT-8602, NSC 794443), abemaciclib (NSC 768073), sotorasib (NSC818433), adagrasib (NSC 831453), MRTX-1133 (NSC 836407), Iadademestat (ORY1001, NSC 806812), and RMC-4630 (NSC839698), were obtained from the NCI Developmental Therapeutics Program Chemical Repository. The FDA-approved anticancer drug set is available from the Developmental Therapeutics Program at https://dtp.cancer.gov/organization/dscb/obtaining/available plates.htm. […] The stock solutions were prepared in dimethyl sulfoxide (DMSO, Sigma-Aldrich, St. Louis, MO, cat. D2650) at 800-fold the tested concentration and stored at -70 degrees C prior to their use. All drugs and investigational agents were tested over a range starting from a high concentration at or near the clinical Cmax and decreasing in half-log increments. If the clinical Cmax for an agent had not been determined, the highest concentration tested was 10 microM.
The patient-derived cancer (PDC) cell lines include five colon adenocarcinomas: 186277-243-T-J2-PDC, 616215-338-R-J1-PDC, 439559-082-T-J2-PDC, 463943-066-T-J2-PDC, and 519858-162-T-J1-PDC; three pancreatic carcinomas: 323965-272-R-J2-PDC, 521955-158-R6-J3-PDC, and 521955-158-R2-J5-PDC; two uterine sarcomas: 327498-152-R-J2-PDC and 993429-296-R-J1-PDC; two rhabdomyosarcomas: 755483-174-R-J1-PDC and 772245-204-R-J1-PDC; two soft tissue sarcomas: 126254-015-R-J1-PDC and 494315-158-R-J1-PDC; two malignant fibrous histiocytomas: 317291-083-R-J1-PDC and 596521-263-R-J1-PDC; two breast carcinomas: 171881-019-R-J1-PDC and 885512-296-R-J2-PDC; and one ovarian carcinoma: 6556581-035-R-J-PDC were obtained from the NCI PDMR, (https://pdmr.cancer.gov). The established cell lines HSSY-2 synovial sarcoma (RRID:CVCL 8719), SYO-1 synovial sarcoma (RRID:CVCL_7146), MPNST malignant peripheral neural sheath tumor were obtained from the Sloan Kettering Institute. The following established cell lines were purchased from the American Type Culture Collection (ATCC, Manassas, VA), Sor the received from the NCI repository:, PANC-1 pancreatic carcinoma (CRL-1469, RRID:CVCL_0480), OVCAR-5 ovarian carcinoma (RRID:CVCL_1628), OVCAR-8 ovarian carcinoma (RRID:CVCL_1629), , MCF-7 breast carcinoma (CRL-12584, RRID:CVCL_0031), MDA-MB-231 breast carcinoma (CRL-12532, RRID:CVCL_0062), NCI-H1876 small cell lung carcinoma (CRL-5902, RRID:CVCL_1503), NCI-H510A small cell lung carcinoma (HTB-184, RRID:CVCL_1565), NCI-H1417 (CRL-5869, RRID:CVCL_1469), and NCI-H196 small cell lung carcinoma (CRL-5823, RRID:CVCL_1509). Dr. Peter Houghton (Greehey Children's Cancer Research Institute, University of Texas Health Science Center, San Antonio, TX) provided Rh-18 rhabdomyosarcoma (RRID:CVCL_1659). Pooled donor human umbilical vein endothelial cells (HUVEC, Lonza, cat. CC-2519) and human mesenchymal stem cells (hMSC, Lonza, cat. PT-2501) were purchased from Lonza (Walkersville, MD).
Cell Culture. […]

[1] = compound alone, run of 09/27/2022

SMILES	viability, T/C (compound 0.0316 µM)	viability, T/C (compound 0.1 µM)	viability, T/C (compound 0.316 µM)	viability, T/C (compound 1 µM)	viability, T/C (compound 3.16 µM)	IC50 (curve of compound)	viability, T/C (compound 0.00316 µM)	viability, T/C (compound 0.01 µM)	also measured
C#Cc1c(F)ccc2cc(O)cc(-c3ncc4c(N5CC6CCC(C5)N6)nc(OCC56CCCN5CC(F)C6)nc4c3F)c12 (configuration not stated)	114% and 104% and 101%	112% and 100% and 106%	92.9% and 93.9% and 84.2%	80.5% and 88.2% and 96.8%	78.7% and 72.7% and 75%	7560 nM and 6900 nM and 7160 nM			viability, T/C (compound 10 µM): 40.5% and 39.1% and 39.3%
C=C(F)C(=O)N1CCN(c2nc(OCC3CCCN3C)nc3c2CCN(c2cccc4cccc(Cl)c24)C3)CC1CC#N (configuration not stated)	102% and 108% and 105%	100% and 107% and 97.9%	83.5% and 91.4% and 89.7%	54.5% and 60.8% and 67.8%	10.6% and 8.67% and 19.2%	1050 nM and 1210 nM and 1490 nM			viability, T/C (compound 10 µM): 0.23% and 0.22% and 0.3%
C=CC(=O)N1CCN(c2nc(=O)n(-c3c(C)ccnc3C(C)C)c3nc(-c4c(O)cccc4F)c(F)cc23)C(C)C1 (configuration not stated)	98.8% and 111% and 105%	103% and 112% and 98%	110% and 116% and 104%	122% and 114% and 107%	120% and 115% and 111%	> 10000 nM			viability, T/C (compound 10 µM): 97% and 100% and 104%
CCN1C(C(=O)NC23CCC(C(=O)O)(CC2)CC3)C(c2cccc(Cl)c2F)C2(C(=O)Nc3cc(Cl)ccc32)C12CCCCC2 (configuration not stated)						> 3000 nM			viability, T/C (compound 0.00949 µM): 101% and 109%; viability, T/C (compound 0.03 µM): 97.1% [middle of 15 runs]; viability, T/C (compound 0.0949 µM): 93.8% [middle of 15 runs]; viability, T/C (compound 0.3 µM): 95.7% [middle of 15 runs]; viability, T/C (compound 0.949 µM): 99.8% [middle of 15 runs]; viability, T/C (compound 3 µM): 103% [middle of 15 runs]; IC50 [1]: > 3000 nM
CCN1CCN(Cc2ccc(Nc3ncc(F)c(-c4cc(F)c5nc(C)n(C(C)C)c5c4)n3)nc2)CC1	70.1% and 70.8% and 77.2%	66.8% and 66.6% and 69.3%	71.2% and 64.5% and 68.4%	60.4% and 55.5% and 60.6%		> 1000 nM	96.2% and 105% and 97.1%	89% and 87.6% and 79.2%	
CNC(C)C(=O)NC1CN(S(=O)(=O)c2cccc(S(=O)(=O)N3CCC4CCC(C(=O)NC(c5ccccc5)c5ccccc5)N4C(=O)C(NC(=O)C(C)NC)C3)c2)CCC2CCC(C(=O)NC(c3ccccc3)c3ccccc3)N2C1=O (configuration not stated)	83.1% [middle of 15 runs]	80.8% [middle of 15 runs]	81.5% [middle of 15 runs]	80.3% [middle of 15 runs]		> 1000 nM	97.5% and 104%	95.1% [middle of 15 runs]	IC50 (compound alone, run of 10/03/2022): > 1000 nM
COc1c(OCCCN2CCOCC2)ccc2c3n(c(=NC(=O)c4cnc(N)nc4)nc12)CCN3	49.5% and 55% and 55.8%	26.1% and 29.9% and 42%	20.3% and 21.6% and 24.1%	9.88% and 9.15% and 11.8%		32.4 nM and 43.9 nM and 55.3 nM	85% and 93% and 92.1%	76.2% and 90.5% and 80.5%	
Cc1c(S(C)(=O)=O)c(-c2cc(F)cc(N3CCN(c4ccc(NS(=O)(=O)c5ccc(NC(CCN6CCC(C(=O)OCCCP(=O)(O)O)CC6)CSc6ccccc6)c(S(=O)(=O)C(F)(F)F)c5)cc4)CC3)c2)c(-c2ccc(Cl)cc2)n1C(C)C (configuration not stated)			92.2% [middle of 14 runs]	90.3% [middle of 14 runs]	88.8% [middle of 13 runs]				IC50 [1]: > 10000 nM
Cc1nc(N2CCC3(CC2)COC(C)C3N)c(CO)nc1Sc1ccnc(N)c1Cl (configuration not stated)						> 3000 nM			viability, T/C (compound 0.00949 µM): 109% and 97.2% and 107%; viability, T/C (compound 0.03 µM): 99.2% and 97.7% and 99.4%; viability, T/C (compound 0.0949 µM): 84.9% and 85.5% and 83.2%; viability, T/C (compound 0.3 µM): 84.3% and 72.2% and 87.1%; viability, T/C (compound 0.949 µM): 77.6% and 64.7% and 77.7%; viability, T/C (compound 3 µM): 62% and 60.2% and 56.3%
Cn1ncnc1[C@H]1c2n[nH]c(=O)c3cc(F)cc(c23)N[C@@H]1c1ccc(F)cc1	92.8% and 92.5% and 90.8%	91.8% and 88.3% and 93.8%				> 100 nM	99.5% and 95.4% and 93.1%	90.6% and 93.5% and 96.7%	viability, T/C (compound 0.000316 µM): 104% and 94.5% and 106%; viability, T/C (compound 0.001 µM): 108% (2×) and 101%
NC(=O)C(=Cn1cnc(-c2cc(C(F)(F)F)cc(C(F)(F)F)c2)n1)c1cncnc1						265 nM and 212 nM and > 300 nM			viability, T/C (compound 0.000949 µM): 102% and 107% and 95.8%; viability, T/C (compound 0.003 µM): 105% and 93.1% and 99.5%; viability, T/C (compound 0.00949 µM): 88.8% and 83.2% and 86.8%; viability, T/C (compound 0.03 µM): 89.3% and 78.8% and 86%; viability, T/C (compound 0.0949 µM): 78.5% and 71.5% and 81.5%; viability, T/C (compound 0.3 µM): 45.6% and 40.4% and 54.9%
NC1CCC(NC2CC2c2ccccc2)CC1 (configuration not stated)	105% and 93.5% and 87%	90.1% and 91.9% and 91.5%				> 100 nM	89.8% and 82% and 93.5%	90.4% and 90% and 91.2%	viability, T/C (compound 0.000316 µM): 97.1% and 101% and 95.9%; viability, T/C (compound 0.001 µM): 97.4% and 108% and 97%
O=C(c1cc(Cc2n[nH]c(=O)c3ccccc23)ccc1F)N1CCN(C(=O)C2CC2)CC1	106% and 108% and 101%	98.9% and 98.3% and 106%	92.3% and 94.9% and 95%	96% and 91.9% and 93.1%	93.5% and 97.9% and 94.9%	> 10000 nM			viability, T/C (compound 10 µM): 76.2% and 81% and 83.6%
O=C(c1ccc(F)c(F)c1Nc1ccc(I)cc1F)N1CC(O)([C@@H]2CCCCN2)C1	69.4% and 74.8% and 72.2%	53% and 61.5% and 50.5%	44.4% and 51% and 47.7%	30.7% and 36% and 33.2%		134 nM and 265 nM and 103 nM	97.8% and 97.6% and 103%	96.5% and 97.5% and 102%	
